Assay results from patent US20110189669A1, “METHODS OF AIDING IN THE DIAGNOSIS OF PROSTATE CANCER” (IMPERIAL INNOVATIONS LIMITED, priority 2008, published 2011).

Tests used:
[1] = test system: GNMT; conditions: cited from earlier work
[2] = test system: LNCaP cells; assay: LNCaP cell growth (Sulphorhodamine B cell staining / cell numbers); type: cell-based
Method: A) LNCaP cell growth is stimulated by the synthetic androgen R1881 (1 nM), as measured using the Sulphorhodamine B cell staining assay.
LNCaP cells were cultured in the absence or presence of 1 nM R1881 and increasing concentrations of SAH for 6 days at which point cell numbers were measured.
Biological methylation reactions which utilise S-adenosylmethionine (SAM) as a methyl donor encompass several key cellular and metabolic processes and include the methylation of phospholipids, proteins, DNA and RNA. This class of reaction is carried out by methyltransferases that are represented by a diverse group of distantly related proteins (8-10), with domains that catalyse the transfer of the methyl group from SAM to a molecular substrate, together with the in-situ generation of SAH. For most methyltransferases, SAH is known to have a higher affinity than SAM for the catalytic site, thereby acting as a potent feedback inhibitor of methyltransferase activity within the cell. […] In most tissues, the balance between SAM and SAH and the subsequent regulation of global methylation activity resides in the ability to rapidly metabolise SAH through the enzyme S-adenosylhomocysteine hydrolase (SAH hydrolase). […] GNMT is a phylogenetically conserved enzyme (12) that methylates Glycine to produce N-Methyl Glycine (sarcosine), which is known to be largely physiologically inert, and also generates SAH. […]

[3] = test system: LNCaP cells; assay: gene expression microarray of androgen-regulated genes in LNCaP cells; type: cell-based
Method: Microarray analysis was carried out on RNAs prepared from three bioreplicate cultures for the no ligand and R1881 treatments.
In order to identify androgen-regulated genes in LNCaP cells, we have performed gene expression microarray profiling using the Applied Biosystems Genome Survey Microarray V2.0. […] These genes include known androgen-responsive genes, including PSA (KLK3), KLK2, DRG-1 and TMPRSS2.
Detailed time course studies were undertaken to determine the time of androgen treatment for optimal expression of androgen-responsive genes (PSA and DRG-1) in the LNCaP cells (FIG. 1A-D). On the basis of these studies, RNA from […] bio-replicate cultures were prepared from LNCaP cells treated with androgen for 24 hours, as well as the no ligand control. The RNAs were subjected to RNA quality assays and validated by real-time RT-PCR for two control genes (GAPDH and RPLPO) and the androgen regulated genes PSA, DRG-1 and GREB-1. […] Three replicates from each treatment set were subsequently used for hybridisation to the Applied Biosystems (ABI) Human Genome Survey Microarray V2.0, which has probes for 29,098 genes, representing the most comprehensive coverage currently available for any human gene expression microarray platform. Raw data were quality assessed and filtered according to the recommendations supplied by the ABI1700 Data Analysis User Guide and the filtered data “vsn normalised” (4). Differential expression was assessed using liner models and empirical Bayes algorithms as described in (5). This analysis has robustly defined 456 probes whose expression was stimulated by androgen by two fold or greater, with positive lod scores (B values) for differential expression.

SMILES: Nc1nc2ncc(CNc3ccc(C(=O)N[C@@H](CCC(=O)O)C(=O)O)cc3)nc2c(=O)[nH]1 [Folic acid]
- inhibition of GNMT (literature statement) [1]: allosteric inhibitor

SMILES: C[C@]1(O)CC[C@H]2[C@@H]3CCC4=CC(=O)CCC4=C3C=C[C@@]21C [R1881]
- LNCaP cell growth ([2]; R1881 1 nM, Sulphorhodamine B assay): stimulated
- up-regulation of DRG-1 expression ([3]; 24 hours androgen treatment): 24 fold
- up-regulation of KLK2 expression ([3]; 24 hours androgen treatment): 32 fold
- up-regulation of PSA (KLK3) expression ([3]; 24 hours androgen treatment): 30 fold
- up-regulation of TMPRSS2 expression ([3]; 24 hours androgen treatment): 16 fold
- increase in GNMT gene expression ([3]; within 24 hours of androgen treatment): 16 fold

SMILES: Nc1ncnc2c1ncn2[C@@H]1O[C@H](CSCC[C@H](N)C(=O)O)[C@@H](O)[C@H]1O [SAH, S-adenosyl-homocysteine]
- effect on androgen-stimulated growth of LNCaP cells ([2]; 1 nM R1881 plus increasing concentrations of SAH, 6 days): potentiates the androgen-stimulated growth
- inhibition of GNMT (literature statement) [1]: relatively insensitive
